Data from patent publication US8637670B2, “Imidazo [4,5-C]quinoline derivatives and their use in the treatment of tumors and/or inflammation” (Piramal Enterprises Limited, priority 2009, dated 2014).

Legend:
[1] = system: PANC 1; experiment: Cytotoxicity, propidium iodide assay, PANC 1; assay type: cell-based; settings: Homo sapiens; Pancreatic, PANC 1, 48 hours treatment; read-out: IC50, C5a (PANC 1)
Procedure: The assay was designed as in the reference, Anticancer Drugs, 2002, 13, 1-8, the disclosure of which is incorporated by reference for the teaching of the assay.
Cells from cell lines as mentioned in the table given below were seeded at a density of 3000 cells/well in a white opaque 96-well plate. Following incubation at 37° C./5% CO2 for a period of 18-24 hours, the cells were treated with various concentrations (stock solution was prepared in DMSO and subsequent dilutions were made in media as per ATCC guidelines) of the compounds of Example 1-40 was for a period of 48 hours. At the end of treatment, the spent culture medium was discarded, the cells were washed with 1×PBS and 200 μl of 7 μg/ml propidium iodide was added to each well. The plates were frozen at −70° C. for at least 24 hours. For analysis, the plates were brought to RT, allowed to thaw and were read in PoleStar fluorimeter with the fluorescence setting. The percentage of viable cells in the non-treated set of wells was considered to be 100 and the percentage viability following treatment was calculated accordingly. IC50 values were calculated from graphs plotted using these percentages. Table 4 depicts the IC50 values of compounds of Example 1-40 in individual cell lines.
The abbreviations for the Cell Lines as used in Table 4 are: […]

[2] = system: IL-6; experiment: Human monocyte assay, LPS-stimulated IL-6 (ELISA); assay type: cell-based; settings: human monocytes, 1 μg/ml LPS, 5 hours
Outline: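 Adherent human PBMC-derived monocytes (2×10^4/well, cultured 48 h) were pretreated with compound or 0.5% DMSO vehicle for 30 min, then stimulated with 1 μg/ml E. coli 0111:B4 LPS for 5 h at 37 °C. Supernatant IL-6 and TNF-α were measured by ELISA; IC50 by nonlinear regression, with MTS toxicity on a parallel plate.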

[3] = system: PC3; experiment: Cytotoxicity, propidium iodide assay, PC3; assay type: cell-based; settings: Homo sapiens, PC-3; Prostate, PC3, 48 hours treatment; read-out: IC50, C2a (PC3)
Outline: (§1)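 3000 cells/well; 18-24 h attachment at 37° C./5% CO2; compound 48 h; PBS wash; 7 μg/ml PI; freeze −70° C. ≥24 h; thaw to RT, fluorescence read; IC50 from % viability vs untreated.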

[4] = system: H460; experiment: Cytotoxicity, propidium iodide assay, H460; assay type: cell-based; settings: Homo sapiens, NCI-H460; Lung, H460, 48 hours treatment; read-out: IC50, C1b (H460)
Outline: as §1

[5] = system: A2780; experiment: Cytotoxicity, propidium iodide assay, A2780; assay type: cell-based; settings: Homo sapiens; Ovarian, A2780, 48 hours treatment; read-out: IC50, C3a (A2780)
Outline: as §1

[6] = system: PI3K α; experiment: PI3K activity assay, cell-based ELISA of AKT (Ser 473) phosphorylation; settings: Homo sapiens, Ovarian cell line A2780, 20% FCS stimulation
Procedure: (§2) The assay was designed as in the reference, Biochemical Journal, 2000, 350, 717-722, the disclosure of which is incorporated by reference for the teaching of the assay.
(§3) Seed cells (Ovarian cell line A2780, ATCC) were plated in a 96 well microtitre plate at a density of 50,000 cells/cm^2 in appropriate complete cell culture medium. The cells were allowed to adhere for 18-24 hours. The cells were allowed to starve for 24 hours. The cells were pretreated (in triplicates) with the compounds of Example 1-40 (stock solution was prepared in DMSO and subsequent dilutions were made in kinase buffer) at a concentration of 10 μM for one hour. Then the cells were stimulated with 20% FCS for 30 minutes. A typical assay would consist of a set of unstimulated cells, a set of stimulated cells and a set of cells treated with compounds of Example 1-40 and a set of cells treated with the stimulator. The medium was discarded. The cells were fixed with 100 μL of 3.7% formaldehyde for 15 minutes. The formaldehyde was discarded by inverting the plate and tapping it on a thick tissue paper layer to remove traces. The cells were washed and permeabilized with 200 μL PBS+Triton-X 100 solution (hereafter referred to as PBS-Triton, containing 0.1% triton-X 100 in 1×PBS) three times, incubating the cells each time for 5 minutes. 100 μL blocking solution (10% FCS in PBS-Triton) was added and incubated for 1 hour at 25° C. The blocking solution was discarded and cells were incubated with the primary antibody in PBS-Triton at a dilution of 1:500 for 1 hour at RT (25° C.). [The primary antibody is Phospho-AKT (Ser 473); Cell Signaling; USA, Cat. No. 9271]. The primary antibody solution was discarded and the cells were washed 3 times with PBS-Triton solution and incubated with the HRP-conjugated secondary antibody in PBS-Triton at a dilution of 1:500 for 1 hour at RT (25° C.). The cells were washed 3 times with PBS-Triton followed by two washes with PBS (to remove traces of triton-X 100). The OPD (o-phenylene diamine dihydrochloride) substrate was prepared for detection of the signal by dissolving one tablet set (two tablets) of SigmaFast OPD (Sigma, USA, Cat No. P9187) in 20 mL distilled water. It should be kept protected from light. 100 μL OPD solutions was added to the wells and the plate was incubated in the dark for 3-5 minutes (depending upon the development of the color). The reaction was stopped by adding 50 μL 2 NH2SO4. The absorbance was measured at 490 nm. The values were expressed in the treated samples, in terms of percentage or fold decrease in AKT phosphorylation with respect to the induced sample. PI-103 (Calbiochem, USA) was used as a standard.

[7] = system: TNF-α; experiment: Human monocyte assay, LPS-stimulated TNF-α (ELISA); assay type: cell-based; settings: human monocytes, 1 μg/ml LPS, 5 hours, read-out: TNFα (IC50)
Procedure: The assay was designed as in the reference, Physiol. Res., 2003, 52, 593-598, the disclosure of which is incorporated by reference for the teaching of the assay.
Peripheral blood mononuclear cells (hPBMC) were harvested from human blood and suspended in RPMI 1640 culture medium containing 10% FCS, 100 U/mL penicillin and […] streptomycin (assay medium). Monocytes in the hPBMCs were counted using a Coulter Counter following which the cells were resuspended at 2×10^5 monocytes/mL. A cell suspension containing 2×10^4 monocytes was aliquoted per well of a 96-well plate. Subsequently, the hPBMCs were incubated for 4-5 hours at 37° C. under 5% CO2 (During the incubation, the monocytes adhered to the bottom of 96-well plastic culture plate). Following the incubation, the non-adherent lymphocytes were washed with assay medium and the adherent monocytes re-fed with assay medium. After a 48-hour incubation period (37° C., 5% CO2), monocytes were pretreated with various concentrations of compounds of Example 1-40 (prepared in DMSO) or vehicle (0.5% DMSO) for 30 minutes and stimulated with 1 μg/ml LPS (Escherchia coli 0111:B4, Sigma Chemical Co., St. Louis, Mo.). The incubation was continued for 5 hours at 37° C., 5% CO2. Supernatants were harvested, assayed for IL-6 and TNF-α by ELISA as described by the manufacturer (BD Biosciences, USA). Dexamethasone (10 μM) was used as standard for this assay. The 50% inhibitory concentration (IC50) values were calculated by a nonlinear regression method. In all experiments, a parallel plate was run to ascertain the toxicity of compounds of Example 1-40. The toxicity was determined using the MTS assay as described in Am. J. Physiol. Cell Physiol., 2003, 285, C813-C822.

[8] = system: mTOR; experiment: mTOR activity assay (cell-based); settings: Homo sapiens, Ovarian cell line A2780
Procedure: as §2, §3

## Cc1cccc(S(=O)(=O)n2c(=O)n(-c3ccc(C(C)(C)C#N)cc3)c3c4cc(Br)ccc4ncc32)c1 [Example 3, 2-(4-(8-Bromo-2-oxo-3-(m-tolylsulfonyl)-2,3-dihydro-1H-imidazo[4,5-c]quinolin-1-yl)phenyl)-2-methylpropanenitrile]
[1]
  IC50: 1 to 3 µM
[2]
  IC50: 1 to 10 µM
[3]
  IC50: ≤ 1 µM
[4]
  IC50: ≤ 1 µM
[5]
  IC50: ≤ 1 µM
[6]
  inhibition at 10 µM: 10 to 50%

## C/C=C/C(=O)n1c(=O)n(-c2ccc(C(C)(C)C#N)cc2)c2c3cc(Br)ccc3ncc21 [Example 27, (E)-2-(4-(8-Bromo-3-but-2-enoyl-2-oxo-2,3-dihydro-1H-imidazo[4,5-c]quinolin-1-yl)phenyl)-2-methylpropanenitrile]
[7]
  IC50: ≤ 1 µM
[8]
  inhibition at 10 µM: > 50%
[1]
  IC50: ≤ 1 µM
[2]
  IC50: ≤ 1 µM
[3]
  IC50: ≤ 1 µM
[4]
  IC50: ≤ 1 µM
[5]
  IC50: > 3 µM
[6]
  inhibition at 10 µM: > 50%

## CC(C)(C#N)c1ccc(-n2c(=O)n(C(=O)c3ccccc3)c3cnc4ccc(Br)cc4c32)cc1 [Example 30, 2-(4-(3-Benzoyl-8-bromo-2-oxo-2,3-dihydro-1H-imidazo[4,5-c]quinolin-1-yl)phenyl)-2-methylpropanenitrile]
[7]
  IC50: ≤ 1 µM
[8]
  inhibition at 10 µM: 10 to 50%
[1]
  IC50: 1 to 3 µM
[2]
  IC50: ≤ 1 µM
[3]
  IC50: 1 to 3 µM
[4]
  IC50: ≤ 1 µM
[5]
  IC50: ≤ 1 µM
[6]
  inhibition at 10 µM: 10 to 50%

## CC(C)(C#N)c1ccc(-n2c(=O)n(C(=O)c3ccccc3)c3cnc4ccc(Cl)cc4c32)cc1 [Example 37, 2-(4-(3-Benzoyl-8-chloro-2-oxo-2,3-dihydro-1H-imidazo[4,5-c]quinolin-1-yl)phenyl)-2-methylpropanenitrile]
[7]
  IC50: ≤ 1 µM
[8]
  inhibition at 10 µM: 10 to 50%
[2]
  IC50: ≤ 1 µM
[3]
  IC50: 1 to 3 µM
[4]
  IC50: 1 to 3 µM

## C/C=C/C(=O)n1c(=O)n(-c2ccc(C(C)(C)C#N)cc2)c2c3cc(Cl)ccc3ncc21 [Example 38, (E)-2-(4-(3-But-2-enoyl-8-chloro-2-oxo-2,3-dihydro-1H-imidazo[4,5-c]quinolin-1-yl)phenyl)-2-methylpropanenitrile]
[7]
  IC50: ≤ 1 µM
[8]
  inhibition at 10 µM: > 50%
[1]
  IC50: ≤ 1 µM
[2]
  IC50: ≤ 1 µM
[3]
  IC50: ≤ 1 µM
[4]
  IC50: ≤ 1 µM
[5]
  IC50: > 3 µM
[6]
  inhibition at 10 µM: > 50%
